Tests used:
[1] = biological target: T1, Solute carrier organic anion transporter family member 1B1 (Homo sapiens, UniProt Q9Y6L6); details: chinese hamster, cho, 10 µM
T1 sequence (Q9Y6L6 whole entry): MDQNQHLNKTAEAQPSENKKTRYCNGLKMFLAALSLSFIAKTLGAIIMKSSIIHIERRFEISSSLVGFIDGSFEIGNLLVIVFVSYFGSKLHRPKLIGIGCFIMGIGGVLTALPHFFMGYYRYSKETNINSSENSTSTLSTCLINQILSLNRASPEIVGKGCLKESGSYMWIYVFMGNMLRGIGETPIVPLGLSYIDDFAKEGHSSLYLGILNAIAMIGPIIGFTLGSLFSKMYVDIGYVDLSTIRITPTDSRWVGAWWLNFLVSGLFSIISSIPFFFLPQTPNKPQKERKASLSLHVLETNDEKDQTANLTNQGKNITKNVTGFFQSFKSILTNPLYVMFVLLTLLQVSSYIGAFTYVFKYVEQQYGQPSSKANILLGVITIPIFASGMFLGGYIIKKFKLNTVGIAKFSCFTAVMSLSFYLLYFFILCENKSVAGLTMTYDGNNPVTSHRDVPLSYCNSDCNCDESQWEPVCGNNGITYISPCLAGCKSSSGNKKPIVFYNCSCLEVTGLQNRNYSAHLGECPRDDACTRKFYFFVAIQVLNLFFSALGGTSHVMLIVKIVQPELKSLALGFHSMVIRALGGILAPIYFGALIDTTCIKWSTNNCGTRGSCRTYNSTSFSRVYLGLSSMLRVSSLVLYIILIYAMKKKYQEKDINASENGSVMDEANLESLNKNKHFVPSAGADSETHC

[2] = biological target: T2, Solute carrier organic anion transporter family member 1B3 (Homo sapiens, UniProt Q9NPD5); details: chinese hamster, cho, 10 µM
T2 sequence (Q9NPD5 whole entry): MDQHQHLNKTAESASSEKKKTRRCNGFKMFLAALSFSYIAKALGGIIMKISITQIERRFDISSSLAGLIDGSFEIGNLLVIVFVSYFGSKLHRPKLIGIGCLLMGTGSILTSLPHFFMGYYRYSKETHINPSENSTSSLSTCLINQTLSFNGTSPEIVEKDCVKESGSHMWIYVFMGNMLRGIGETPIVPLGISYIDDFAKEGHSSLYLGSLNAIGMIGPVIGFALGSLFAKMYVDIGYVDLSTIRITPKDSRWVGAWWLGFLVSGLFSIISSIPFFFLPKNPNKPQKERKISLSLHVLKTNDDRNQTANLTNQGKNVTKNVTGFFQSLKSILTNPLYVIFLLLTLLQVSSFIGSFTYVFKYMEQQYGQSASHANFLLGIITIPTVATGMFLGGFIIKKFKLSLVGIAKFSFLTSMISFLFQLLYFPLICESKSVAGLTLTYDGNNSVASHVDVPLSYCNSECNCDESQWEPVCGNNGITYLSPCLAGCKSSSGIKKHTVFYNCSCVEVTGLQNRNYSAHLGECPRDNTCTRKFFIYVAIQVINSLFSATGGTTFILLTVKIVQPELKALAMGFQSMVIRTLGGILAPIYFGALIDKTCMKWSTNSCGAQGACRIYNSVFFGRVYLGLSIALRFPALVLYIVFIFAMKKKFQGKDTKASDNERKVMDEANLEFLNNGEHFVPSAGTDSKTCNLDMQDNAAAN

Row | Structure (SMILES) | residual activity [1] [%] | residual activity [2] [%]
1 | CC(C)[C@H]1CC[C@H](C(=O)N[C@H](Cc2ccccc2)C(=O)O)CC1 [NATEGLINIDE] | 99.81 | 70.33
2 | CN1CCOC(c2ccccc2)c2ccccc2C1 (stereo not given) [NEFOPAM] | 102.9 | 100.9
3 | COc1ccc(CCC(=O)c2c(O)cc(O[C@@H]3O[C@H](CO)[C@@H](O)[C@H](O)[C@H]3O[C@@H]3O[C@@H](C)[C@H](O)[C@@H](O)[C@H]3O)cc2O)cc1O [NEOHESPERIDIN DIHYDROCHALCONE] | 53.61 | 198.2
4 | CN(C)C(=O)Oc1cccc([N+](C)(C)C)c1.[Br-] [NEOSTIGMINE BROMIDE] | 95.12 | 101.1
5 | CO[C@H]1[C@H](O)[C@H](O[C@H]2CC[C@@]3(C)[C@H](CC[C@@H]4[C@@H]3CC[C@]3(C)[C@@H](C5=CC(=O)OC5)CC[C@]43O)C2)O[C@@H](C)[C@@H]1O [NERIIFOLIN] | 95.6 | 148.8
6 | C=CC(C)(O)CC/C=C(\C)CCC=C(C)C (stereo not given) [NEROLIDOL] | 147.7 | 131.1
7 | O=C(O)c1cccnc1 [NIACIN] | 124.4 | 89.89
8 | COC(=O)C1=C(C)NC(C)=C(C(=O)OCCN(C)Cc2ccccc2)C1c1cccc([N+](=O)[O-])c1.Cl (stereo not given) [NICARDIPINE HYDROCHLORIDE] | 56.95 | 67.41
9 | CO[C@]12C[C@@H](COC(=O)c3cncc(Br)c3)CN(C)[C@@H]1Cc1cn(C)c3cccc2c13 [NICERGOLINE] | 91.22 | 124.1
10 | COC(=O)C1=C(C)NC(C)=C(C(=O)OC)C1c1ccccc1[N+](=O)[O-] [NIFEDIPINE] | 75.83 | 170.6
11 | Cc1c(NC(=O)c2cccnc2)c(=O)n(-c2ccccc2)n1C [NIFENAZONE] | 96.39 | 120.6
12 | O=C(O)c1cccnc1Nc1cccc(C(F)(F)F)c1 [NIFLUMIC ACID] | 79.63 | 83.73
13 | C[C@H](C[C@@H](O)[C@@H]1OC1(C)C)[C@@H]1CC[C@]2(C)C3=CC[C@H]4C(C)(C)C(=O)CC[C@]4(C)[C@H]3CC[C@@]12C [NILOTICIN] | 72.03 | 113.7
14 | CC1(C)NC(=O)N(c2ccc([N+](=O)[O-])c(C(F)(F)F)c2)C1=O [NILUTAMIDE] | 116.6 | 97.83
15 | CS(=O)(=O)Nc1ccc([N+](=O)[O-])cc1Oc1ccccc1 [NIMESULIDE] | 82.48 | 58.26
16 | Cc1ncc(CNC(=O)N(CCCl)N=O)c(N)n1 [NIMUSTINE] | 121.9 | 112
17 | O=C(O)C1CCCNC1 (stereo not given) [NIPECOTIC ACID] | 91.42 | 103.2
18 | N=C(NCCC[C@H](N)C(=O)O)N[N+](=O)[O-] [NITROARGININE] | 113.4 | 113.8
19 | O=C1CN(/N=C/c2ccc([N+](=O)[O-])o2)C(=O)N1 [NITROFURANTOIN] | 97.62 | 100.8
20 | NC(=O)N/N=C/c1ccc([N+](=O)[O-])o1 [NITROFURAZONE] | 93.46 | 98.78
21 | NC(=O)c1cc([N+](=O)[O-])cc([N+](=O)[O-])c1 [NITROMIDE] | 103.7 | 106.7
22 | COC(=O)Nc1nc2ccc(C(=O)c3cccs3)cc2[nH]1 [NOCODAZOLE] | 105.9 | 95.15
23 | CN1Cc2c(N)cccc2C(c2ccccc2)C1.O=C(O)/C=C\C(=O)O (stereo not given) [NOMIFENSINE MALEATE] | 59.46 | 79.07

Row | Structure (SMILES) | residual activity [1] [%] | residual activity [2] [%]
24 | CCCCC[C@H](CC(=O)O)C(=O)O [NONIC ACID] | 128.4 | 117
25 | CC(N)C(O)c1ccc(O)c(O)c1.Cl (stereo not given) [NORDEFRIN HYDROCHLORIDE] | 122.3 | 103.4
26 | NC[C@H](O)c1ccc(O)c(O)c1 [NOREPINEPHRINE] | 112.9 | 102.3
27 | C#C[C@]1(OC(C)=O)CC[C@H]2[C@@H]3CCC4=CC(=O)CC[C@@H]4[C@H]3CC[C@@]21C [NORETHINDRONE ACETATE] | 106.9 | 104.9
28 | C#C[C@]1(O)CC[C@H]2[C@@H]3CCC4=CC(=O)CC[C@@H]4[C@H]3CC[C@@]21C [NORETHINDRONE] | 91.27 | 109.8
29 | C#C[C@]1(O)CC[C@H]2[C@@H]3CCC4=C(CCC(=O)C4)[C@H]3CC[C@@]21C [NORETHYNODREL] | 64.52 | 124.5
30 | CCn1cc(C(=O)O)c(=O)c2cc(F)c(N3CCNCC3)cc21 [NORFLOXACIN] | 97.94 | 99.94
31 | C#CC1(O)CC[C@H]2[C@@H]3CCC4=CC(=O)CC[C@@H]4[C@H]3CC[C@@]21CC (stereo not given in full) [NORGESTREL] | 90.26 | 102.9
32 | c1ccc2c(c1)[nH]c1cnccc12 [NORHARMANE] | 95.1 | 87.66
33 | COc1ccc2c(c1OC)C(=O)O[C@@H]2[C@H]1c2c(cc3c(c2OC)OCO3)CCN1C.Cl [NOSCAPINE HYDROCHLORIDE] | 114.6 | 93.17
34 | CO[C@@H]1[C@@H](OC(N)=O)[C@@H](O)[C@H](Oc2ccc3c([O-])c(NC(=O)c4ccc(O)c(CC=C(C)C)c4)c(=O)oc3c2C)OC1(C)C.[Na+] [NOVOBIOCIN SODIUM] | 56.21 | 47.15
35 | CC(CCc1ccccc1)NC(C)C(O)c1ccc(O)cc1.Cl (stereo not given) [NYLIDRIN HYDROCHLORIDE] | 112.1 | 116.9
36 | C=C(C)[C@H]1COc2cc3oc(=O)ccc3cc2O1 [OBLIQUIN] | 112.3 | 103.6
37 | COC1=CC(=O)C(O)=C/C1=C\C=C\c1ccccc1 [OBTUSAQUINONE] | 60.32 | 88.38
38 | Cl.NCC(O)c1ccc(O)cc1 (stereo not given) [OCTOPAMINE HYDROCHLORIDE] | 89.25 | 96.06
39 | CC1COc2c(N3CCN(C)CC3)c(F)cc3c(=O)c(C(=O)O)cn1c23 (stereo not given) [OFLOXACIN] | 65.85 | 89.51
40 | O=C(O)CN(CC(=O)O)Cc1cc2c(cc1O)Oc1cc(O)c(CN(CC(=O)O)CC(=O)O)cc1C21OC(=O)c2ccccc21 [OFTASCEINE] | 105.6 | 121.3
41 | CO[C@H]1C[C@H](O[C@H]2[C@H](C)[C@@H](O[C@@H]3O[C@H](C)C[C@H](N(C)C)[C@H]3O)[C@@H](C)C[C@@]3(CO3)C(=O)[C@H](C)[C@@H](O)[C@@H](C)[C@@H](C)OC(=O)[C@@H]2C)O[C@@H](C)[C@@H]1O.O=P(O)(O)O [OLEANDOMYCIN PHOSPHATE] | 102.8 | 105.8
42 | CO[C@H]1C[C@H](O[C@H]2CC[C@@]3(C)[C@H](CC[C@@H]4[C@@H]3CC[C@]3(C)[C@@H](C5=CC(=O)OC5)[C@@H](OC(C)=O)C[C@]43O)C2)O[C@@H](C)[C@@H]1O [OLEANDRIN] | 111.5 | 91.7
43 | CC1(C)CC[C@]2(C(=O)O)CC[C@]3(C)C(=CC[C@@H]4[C@@]5(C)CC[C@H](O)C(C)(C)[C@@H]5CC[C@]43C)[C@@H]2C1 [OLEANOLIC_ACID] | 83.88 | 73.61
44 | COc1ccc(CC(=O)c2ccc(O)cc2O)cc1 [ONONETIN] | 149.8 | 96.22
45 | CCCCCCCCCCC[C@@H](C[C@@H]1OC(=O)[C@H]1CCCCCC)OC(=O)[C@H](CC(C)C)NC=O [ORLISTAT] | 85.27 | 84.62

From ChEMBL document CHEMBL3039007, “Structure-based identification of OATP1B1/3 inhibitors” (Mol Pharmacol, 2013)
